# Assay results as given in PubChem BioAssay AID248 (DTP/NCI, 2004).
# Values joined by “and” are separate entries in the source; they are usually repeats but may differ in a detail not shown here. Equal entries are not always repeated. Inconclusive results and toxic doses are left out. Peptide text beside a SMILES is read from it. * marks the point of attachment. Cbz = O=C(OCc1ccccc1)*
# Tested on: L1210 leukemia ip in BDF1 mice, survival T/C
# Test: NCI In Vivo Anticancer Drug Screen. Data for tumor model L1210 Leukemia (intraperitoneal) in B6D2F1 (BDF1) mice
# Conditions: endpoint: mean survival time, higher = longer survival
# Outline: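 Read-out is survival time, reported as the treated-group measurement over the vehicle-control measurement.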
# [1] = dose: 100.0 mg/kg/injection, schedule: Q01DX009 (ip), vehicle: saline
# [2] = dose: 100.0 mg/kg/injection, schedule: Q04DX003 (ip), vehicle: saline
# [3] = dose: 200.0 mg/kg/injection, schedule: Q01DX009 (ip), vehicle: saline
# [4] = dose: 200.0 mg/kg/injection, schedule: Q04DX003 (ip), vehicle: saline
# [5] = dose: 400.0 mg/kg/injection, schedule: Q04DX003 (ip), vehicle: saline
# [6] = dose: 100.0 mg/kg/injection, schedule: Q04DX003 (ip), vehicle: Klucel (hydroxypropylcellulose) (HPC)
# [7] = dose: 200.0 mg/kg/injection, schedule: Q04DX003 (ip), vehicle: Klucel (hydroxypropylcellulose) (HPC)
# [8] = dose: 400.0 mg/kg/injection, schedule: Q04DX003 (ip), vehicle: Klucel (hydroxypropylcellulose) (HPC)
# [9] = dose: 50.0 mg/kg/injection, schedule: Q01DX001 (ip), vehicle: carboxymethylcellulose (CMC)
# [10] = dose: 100.0 mg/kg/injection, schedule: Q01DX001 (ip), vehicle: carboxymethylcellulose (CMC)
# [11] = dose: 200.0 mg/kg/injection, schedule: Q01DX001 (ip), vehicle: carboxymethylcellulose (CMC)
# [12] = dose: 400.0 mg/kg/injection, schedule: Q01DX001 (ip), vehicle: carboxymethylcellulose (CMC)
# [13] = dose: 400.0 mg/kg/injection, schedule: Q01DX009 (ip), vehicle: saline
compound,measurement,setting,value
CCCCc1ccc(NC(=O)N(CCCl)N=O)cc1,T/C,"dose: 6.0 mg/kg/injection, schedule: Q01DX009 (ip), vehicle: carboxymethylcellulose (CMC)",156 % of control
same,T/C,"dose: 33.0 mg/kg/injection, schedule: Q01DX009 (ip), vehicle: carboxymethylcellulose (CMC)",175 % of control
same,T/C,"dose: 37.5 mg/kg/injection, schedule: Q01DX001 (ip), vehicle: carboxymethylcellulose (CMC)",163 % of control
same,T/C,"dose: 50.0 mg/kg/injection, schedule: Q01DX009 (ip), vehicle: carboxymethylcellulose (CMC)",180 % of control
same,T/C,"dose: 75.0 mg/kg/injection, schedule: Q01DX001 (ip), vehicle: carboxymethylcellulose (CMC)",194 % of control
same,T/C,"dose: 75.0 mg/kg/injection, schedule: Q01DX009 (ip), vehicle: carboxymethylcellulose (CMC)",106 % of control
same,T/C,"dose: 75.0 mg/kg/injection, schedule: Q04DX003 (ip), vehicle: saline with Tween-80",120 % of control
same,T/C,"dose: 112.5 mg/kg/injection, schedule: Q01DX009 (ip), vehicle: carboxymethylcellulose (CMC)",87 % of control
same,T/C,"dose: 150.0 mg/kg/injection, schedule: Q01DX001 (ip), vehicle: carboxymethylcellulose (CMC)",260 % of control
O=C1OC(C(O)C(O)CO)C(O)C1O (stereo not drawn),T/C,"dose: 50.0 mg/kg/injection, schedule: Q01DX009 (ip), vehicle: saline",92 % of control
same,T/C,[1],92 % of control
same,T/C,[2],92 % of control
same,T/C,[3],97 % of control
same,T/C,[4],94 % of control
same,T/C,[5],100 % of control
O=C(O)/C=C/c1c2ccc(=O)cc-2oc2cc(O)ccc12,T/C,[6],96 % of control
same,T/C,[7],91 % of control
same,T/C,[8],105 % of control
Cc1cccc(C)c1N=Nc1cc[n+]([O-])cc1,T/C,"dose: 6.25 mg/kg/injection, schedule: Q04DX003 (ip), vehicle: saline with Tween-80",92 % of control
same,T/C,"dose: 12.5 mg/kg/injection, schedule: Q04DX003 (ip), vehicle: saline with Tween-80",95 % of control
same,T/C,"dose: 25.0 mg/kg/injection, schedule: Q04DX003 (ip), vehicle: saline with Tween-80",102 % of control and 92 % of control
same,T/C,"dose: 50.0 mg/kg/injection, schedule: Q04DX003 (ip), vehicle: saline with Tween-80",100 % of control
O=C(O)CCn1ccc2ccccc21,T/C,[6],97 % of control
same,T/C,[7],97 % of control
same,T/C,[8],97 % of control
Cc1ccc(NC(=O)NCCCO)cc1,T/C,[9],101 % of control
same,T/C,[10],101 % of control
same,T/C,[11],106 % of control
same,T/C,[12],104 % of control
O=[N+]([O-])c1ccc(/C=N/c2ncc(Br)s2)o1,T/C,"dose: 50.0 mg/kg/injection, schedule: Q01DX009 (ip), vehicle: saline with Tween-80",102 % of control
same,T/C,"dose: 100.0 mg/kg/injection, schedule: Q01DX009 (ip), vehicle: saline with Tween-80",98 % of control
same,T/C,"dose: 100.0 mg/kg/injection, schedule: Q04DX003 (ip), vehicle: saline with Tween-80",111 % of control
same,T/C,"dose: 200.0 mg/kg/injection, schedule: Q04DX003 (ip), vehicle: saline with Tween-80",111 % of control
Cc1c(N=O)c(=O)n(-c2ccccc2)n1C,T/C,"dose: 100.0 mg/kg/injection, schedule: Q01DX009 (ip), vehicle: Klucel (hydroxypropylcellulose) (HPC)",94 % of control
same,T/C,[6],95 % of control
same,T/C,"dose: 200.0 mg/kg/injection, schedule: Q01DX009 (ip), vehicle: Klucel (hydroxypropylcellulose) (HPC)",97 % of control
same,T/C,[7],95 % of control
same,T/C,"dose: 400.0 mg/kg/injection, schedule: Q01DX009 (ip), vehicle: Klucel (hydroxypropylcellulose) (HPC)",110 % of control
same,T/C,[8],98 % of control
O=S(=O)(Cc1ccccc1)C(=C(N1CCCCC1)N1CCCCC1)S(=O)(=O)Cc1ccccc1,T/C,"dose: 100.0 mg/kg/injection, schedule: Q01DX001 (ip), vehicle: saline",102 % of control
same,T/C,[1],94 % of control
same,T/C,"dose: 200.0 mg/kg/injection, schedule: Q01DX001 (ip), vehicle: saline",104 % of control
same,T/C,[3],93 % of control
same,T/C,"dose: 400.0 mg/kg/injection, schedule: Q01DX001 (ip), vehicle: saline",98 % of control
same,T/C,[13],96 % of control
CCOc1ccc(Br)cc1/C=C/C(C)=O,T/C,[1],103 % of control
same,T/C,[2],95 % of control
same,T/C,[3],98 % of control
same,T/C,[4],111 % of control
same,T/C,[13],90 % of control
same,T/C,[5],97 % of control
CCOC(=O)CCC(NC(=O)C(CCC(=O)O)NC(=O)OCc1ccccc1)C(=O)OCC (stereo not drawn) (Cbz-Glu-Glu(OEt)-OEt; configuration not given here),T/C,[6],94 % of control
same,T/C,[7],101 % of control
same,T/C,[8],96 % of control
COC(=O)C(C)O (stereo not drawn),T/C,[2],97 % of control
same,T/C,[4],105 % of control
same,T/C,[5],107 % of control
CCCCCCOC(=O)Nc1ccc(S(=O)(=O)CC)cc1,T/C,[10],100 % of control
same,T/C,[11],97 % of control
same,T/C,[12],97 % of control
CCCCNC(=O)N(CC)C(=NCC)c1ccc(NC(=O)c2ccc(C(=O)Nc3ccc(C(=NCC)N(CC)C(=O)NCCCC)cc3)cc2)cc1,T/C,"dose: 3.12 mg/kg/injection, schedule: Q01DX015 (ip), vehicle: methylcellulose (MC)",109 % of control
same,T/C,"dose: 6.25 mg/kg/injection, schedule: Q01DX015 (ip), vehicle: methylcellulose (MC)",121 % of control
same,T/C,"dose: 12.5 mg/kg/injection, schedule: Q01DX015 (ip), vehicle: methylcellulose (MC)",178 % of control
same,T/C,"dose: 25.0 mg/kg/injection, schedule: Q01DX015 (ip), vehicle: methylcellulose (MC)",120 % of control
O=C(O)C1C(C(=O)O)C2(Cl)C(Cl)=C(Cl)C1(Cl)C2(Cl)Cl.[Cu+2] (stereo not drawn),T/C,"dose: 25.0 mg/kg/injection, schedule: Q01DX001 (ip), vehicle: Klucel (hydroxypropylcellulose) (HPC)",92 % of control
same,T/C,"dose: 50.0 mg/kg/injection, schedule: Q01DX001 (ip), vehicle: Klucel (hydroxypropylcellulose) (HPC)",97 % of control
same,T/C,"dose: 50.0 mg/kg/injection, schedule: Q01DX009 (ip), vehicle: saline sonified",95 % of control
O=C(C[N+]12CN3CN(CN(C3)C1)C2)c1ccc(Cl)cc1,T/C,"dose: 40.0 mg/kg/injection, schedule: Q01DX Z (ip), vehicle: saline",98 % of control
same,T/C,"dose: 44.0 mg/kg/injection, schedule: Q01DX Z (ip), vehicle: carboxymethylcellulose (CMC)",109 % of control
same,T/C,[9],107 % of control
same,T/C,"dose: 60.0 mg/kg/injection, schedule: Q01DX Z (ip), vehicle: saline",107 % of control
same,T/C,"dose: 73.0 mg/kg/injection, schedule: Q01DX Z (ip), vehicle: carboxymethylcellulose (CMC)",110 % of control
same,T/C,"dose: 90.0 mg/kg/injection, schedule: Q01DX Z (ip), vehicle: saline",109 % of control
same,T/C,[10],102 % of control
same,T/C,"dose: 110.0 mg/kg/injection, schedule: Q01DX Z (ip), vehicle: carboxymethylcellulose (CMC)",113 % of control
same,T/C,"dose: 135.0 mg/kg/injection, schedule: Q01DX Z (ip), vehicle: saline",109 % of control
same,T/C,"dose: 165.0 mg/kg/injection, schedule: Q01DX Z (ip), vehicle: carboxymethylcellulose (CMC)",115 % of control
same,T/C,[11],100 % of control
same,T/C,"dose: 202.5 mg/kg/injection, schedule: Q01DX Z (ip), vehicle: saline",112 % of control
same,T/C,"dose: 303.7 mg/kg/injection, schedule: Q01DX Z (ip), vehicle: saline",113 % of control
same,T/C,[12],107 % of control
Nc1nc(Cl)nc2c1ncn2Cc1ccccc1,T/C,"dose: 9.5 mg/kg/injection, schedule: Q01DX001 (ip), vehicle: other",101 % of control
same,T/C,"dose: 19.0 mg/kg/injection, schedule: Q01DX001 (ip), vehicle: other",105 % of control
same,T/C,"dose: 38.0 mg/kg/injection, schedule: Q01DX001 (ip), vehicle: other",101 % of control
same,T/C,"dose: 75.0 mg/kg/injection, schedule: Q01DX001 (ip), vehicle: other",119 % of control
O=[N+]([O-])c1ccc(C=Nc2ccc(C(c3ccccc3)(c3ccccc3)c3ccccc3)cc2)s1,T/C,[6],95 % of control
same,T/C,[7],97 % of control
same,T/C,[8],93 % of control
